Experimental data published in ChEMBL document CHEMBL1201862, “PubChem BioAssay data set” (2004).
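Interpolation was linear, between the two tested concentrations surrounding the appropriate level; five concentrations were tested over 48 hours in 96-well plates. GI50 marks 50% less growth.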 Active and inactive are the calls of the source. No stated cut-off is given here; in the data, active = GI50 up to about 1.1 µM and inactive = higher.

Columns and labels:
Assay in all cases: growth of human tumour cells (NCI), 48 h
UACC-62 = tested on: UACC-62
HT-29 = tested on: HT-29
HCC 2998 = tested on: HCC 2998
MCF7 = tested on: MCF7
SF-268 = tested on: SF-268
NCI/ADR-RES = tested on: NCI/ADR-RES
HL-60 = tested on: HL-60
HCT-15 = tested on: HCT-15
NCI-H522 = tested on: NCI-H522
OVCAR-3 = tested on: OVCAR-3
SN12C = tested on: SN12C
SF-295 = tested on: SF-295
LOX IMVI = tested on: LOX IMVI
A498 = tested on: A498
786-0 = tested on: 786-0
EKVX = tested on: EKVX
MDA-MB-231 = tested on: MDA-MB-231
CCRF-CEM = tested on: CCRF-CEM
RPMI-8226 = tested on: RPMI-8226
K562 = tested on: K562

Row | Structure (SMILES) | GI50 (UACC-62) | GI50 (HT-29) | GI50 (HCC 2998) | GI50 (MCF7) | GI50 (SF-268) | GI50 (NCI/ADR-RES) | GI50 (HL-60) | GI50 (HCT-15) [µM] | GI50 (NCI-H522) | GI50 (OVCAR-3) | GI50 (SN12C) | GI50 (SF-295) | GI50 (LOX IMVI) | GI50 (A498) | GI50 (786-0) | GI50 (EKVX) | GI50 (MDA-MB-231) | GI50 (CCRF-CEM) | GI50 (RPMI-8226) | GI50 (K562)
1 | Nc1nc(Cl)nc2c1ncn2C1CCC(COP(=O)(O)OP(=O)(O)OP(=O)(O)O)O1 (centres undefined) | 18.1 µM (inactive) | 32 µM (inactive) | 28.1 µM (inactive) | 29.4 µM (inactive) | 47.9 µM (inactive) | 21.8 µM (inactive) | 28.5 µM (inactive) | 34.8 | 25.8 µM (inactive) | 50.2 µM (inactive) | 38.8 µM (inactive) | 17.9 µM (inactive) | 28.3 µM (inactive) | 26.1 µM (inactive) | 37.3 µM (inactive) | 40.1 µM (inactive) | 26.8 µM (inactive) | 44.3 µM (inactive) | – | –
2 | Cc1cnc2[nH]c(-c3ccccc3)cc(=O)c2c1 | < 0.0132 µM (active) | 0.0101 µM (active) | 0.0372 µM (active) | 0.164 µM (active) | 0.0697 µM (active) | 0.012 µM (active) | < 0.01 µM (active) | 0.0212 | < 0.0118 µM (active) | 0.0123 µM (active) | 0.0527 µM (active) | 0.0545 µM (active) | 0.0351 µM (active) | – | 0.043 µM (active) | 0.716 µM (active) | 0.217 µM (active) | 0.0159 µM (active) | 0.0219 µM (active) | < 0.01 µM (active)
3 | C=CCN1C[C@H](C)N([C@@H](c2ccc(C(=O)N3CCCCC3)cc2)c2cccc(OC)c2)C[C@H]1C | 21.5 µM (inactive) | 24.7 µM (inactive) | 31.6 µM (inactive) | 30.1 µM (inactive) | 52.7 µM (inactive) | 32.4 µM (inactive) | 1.35 µM (inactive) | 29.6 | 21.7 µM (inactive) | 49.2 µM (inactive) | 43 µM (inactive) | 45.2 µM (inactive) | 14.4 µM (inactive) | 29.4 µM (inactive) | 37.9 µM (inactive) | 44.4 µM (inactive) | 30.1 µM (inactive) | 21.5 µM (inactive) | – | 20.6 µM (inactive)
4 | c1ccc(CCCCNCc2cc(CNCCCCc3ccccc3)cc(CNCCCCc3ccccc3)c2)cc1 | 1.76 µM (inactive) | 1.02 µM (active) | 0.149 µM (active) | 0.178 µM (active) | 1.53 µM (inactive) | 0.76 µM (active) | 0.226 µM (active) | 0.586 | 0.667 µM (active) | 1.47 µM (inactive) | 3.63 µM (inactive) | 1.81 µM (inactive) | 0.308 µM (active) | – | 1.31 µM (inactive) | 1.64 µM (inactive) | 1.61 µM (inactive) | 0.211 µM (active) | 0.16 µM (active) | 0.272 µM (active)
5 | Cc1ccnc2nc(-c3ccc4ccccc4c3)cc(O)c12 | 0.531 µM (active) | 0.8 µM (active) | 1.65 µM (inactive) | 0.258 µM (active) | 3.1 µM (inactive) | 1.3 µM (inactive) | – | 0.43 | 0.601 µM (active) | – | 4.01 µM (inactive) | – | 0.818 µM (active) | 1.49 µM (inactive) | 1.52 µM (inactive) | 4.36 µM (inactive) | 1.67 µM (inactive) | 1.04 µM (active) | 0.641 µM (active) | 0.403 µM (active)
6 | COc1cc(-c2cc(=O)c3cc4c(cc3[nH]2)OCO4)cc(OC)c1O | > 10 µM (inactive) | > 10 µM (inactive) | > 10 µM (inactive) | > 10 µM (inactive) | > 10 µM (inactive) | > 10 µM (inactive) | > 10 µM (inactive) | > 10 | > 10 µM (inactive) | > 10 µM (inactive) | > 10 µM (inactive) | > 10 µM (inactive) | > 10 µM (inactive) | – | > 10 µM (inactive) | > 10 µM (inactive) | > 10 µM (inactive) | > 10 µM (inactive) | > 10 µM (inactive) | > 10 µM (inactive)
7 | CC1CC2OC(=N)C1(C#N)C2(C#N)C#N (centres undefined) | 23.4 µM (inactive) | 19.4 µM (inactive) | 19.5 µM (inactive) | 28 µM (inactive) | 21.8 µM (inactive) | 29.1 µM (inactive) | – | 14 | 13.5 µM (inactive) | – | 19.5 µM (inactive) | 79.1 µM (inactive) | 14.7 µM (inactive) | 20.3 µM (inactive) | 17.9 µM (inactive) | 16.6 µM (inactive) | 17.2 µM (inactive) | 4.94 µM (inactive) | 16.4 µM (inactive) | 17.9 µM (inactive)
8 | CCOC(=O)c1cn2c(n1)sc1c(Cl)c(Cl)ccc12 | 20.2 µM (inactive) | 12 µM (inactive) | 30.7 µM (inactive) | 11.1 µM (inactive) | 16.9 µM (inactive) | 8.38 µM (inactive) | – | 5.07 | 4.11 µM (inactive) | 11.1 µM (inactive) | 3.45 µM (inactive) | 22.9 µM (inactive) | 13.2 µM (inactive) | 20.6 µM (inactive) | 7.66 µM (inactive) | 31 µM (inactive) | 26.7 µM (inactive) | 4.97 µM (inactive) | 5.02 µM (inactive) | 3.96 µM (inactive)
9 | COc1ccc(Nc2nnc(CCCCCCCCc3nnc(Nc4ccc(OC)cc4)o3)o2)cc1 | – | > 100 µM (inactive) | > 100 µM (inactive) | > 100 µM (inactive) | > 100 µM (inactive) | > 100 µM (inactive) | > 100 µM (inactive) | > 100 | 61.7 µM (inactive) | > 100 µM (inactive) | > 100 µM (inactive) | > 100 µM (inactive) | > 100 µM (inactive) | > 100 µM (inactive) | > 100 µM (inactive) | > 100 µM (inactive) | > 100 µM (inactive) | > 100 µM (inactive) | – | > 100 µM (inactive)
10 | COc1ccc(Nc2nc3ccc(C(F)(F)F)cc3nc2C(=O)O)cc1 | 19.1 µM (inactive) | 36.9 µM (inactive) | 24 µM (inactive) | 36.6 µM (inactive) | 37.7 µM (inactive) | 29.9 µM (inactive) | – | 28.6 | – | 19.9 µM (inactive) | 30.3 µM (inactive) | 23.6 µM (inactive) | 32.5 µM (inactive) | 16.7 µM (inactive) | 44.8 µM (inactive) | 31.5 µM (inactive) | 66.4 µM (inactive) | 27 µM (inactive) | 12.1 µM (inactive) | 29.9 µM (inactive)
11 | CC1(C)OC(=O)C(C)(C)OC1=O | > 100 µM (inactive) | > 100 µM (inactive) | – | > 100 µM (inactive) | > 100 µM (inactive) | > 100 µM (inactive) | > 100 µM (inactive) | > 100 | > 100 µM (inactive) | > 100 µM (inactive) | > 100 µM (inactive) | > 100 µM (inactive) | > 100 µM (inactive) | > 100 µM (inactive) | > 100 µM (inactive) | > 100 µM (inactive) | > 100 µM (inactive) | > 100 µM (inactive) | > 100 µM (inactive) | > 100 µM (inactive)
12 | O=C1N/C(=N/N=C/C(O)C(O)C(O)C(O)CO)N/C1=C\c1ccco1 (centres undefined) | > 100 µM (inactive) | > 100 µM (inactive) | – | > 100 µM (inactive) | > 100 µM (inactive) | > 100 µM (inactive) | > 100 µM (inactive) | > 100 | 81.7 µM (inactive) | > 100 µM (inactive) | > 100 µM (inactive) | > 100 µM (inactive) | > 100 µM (inactive) | > 100 µM (inactive) | > 100 µM (inactive) | > 100 µM (inactive) | > 100 µM (inactive) | 48.4 µM (inactive) | > 100 µM (inactive) | > 100 µM (inactive)
13 | CN(Cc1cc(C(C)(C)C)cc(Br)c1O)Cc1cc(C(C)(C)C)cc(Br)c1O | 3.13 µM (inactive) | 4.48 µM (inactive) | – | 1.56 µM (inactive) | 3.66 µM (inactive) | 3.03 µM (inactive) | 4.2 µM (inactive) | 3.12 | 2.84 µM (inactive) | 2.15 µM (inactive) | 4.19 µM (inactive) | 4.02 µM (inactive) | 3.77 µM (inactive) | 2.75 µM (inactive) | 3.69 µM (inactive) | 3.83 µM (inactive) | 2.15 µM (inactive) | 2.7 µM (inactive) | 2.01 µM (inactive) | 3.13 µM (inactive)
14 | Nc1ccccc1/N=N/c1c(S(=O)(=O)O)cc2cc(S(=O)(=O)O)cc(O)c2c1O | > 100 µM (inactive) | > 100 µM (inactive) | > 100 µM (inactive) | > 100 µM (inactive) | > 100 µM (inactive) | > 100 µM (inactive) | – | > 100 | > 100 µM (inactive) | > 100 µM (inactive) | 11.2 µM (inactive) | > 100 µM (inactive) | > 100 µM (inactive) | > 100 µM (inactive) | 45.7 µM (inactive) | > 100 µM (inactive) | > 100 µM (inactive) | > 100 µM (inactive) | > 100 µM (inactive) | > 100 µM (inactive)
15 | Cc1c(C)c(C)n(C2OC(CO)C(O)C(O)C2O)c(=S)c1C#N (centres undefined) | > 100 µM (inactive) | > 100 µM (inactive) | > 100 µM (inactive) | > 100 µM (inactive) | > 100 µM (inactive) | > 100 µM (inactive) | > 100 µM (inactive) | > 100 | > 100 µM (inactive) | > 100 µM (inactive) | > 100 µM (inactive) | > 100 µM (inactive) | > 100 µM (inactive) | > 100 µM (inactive) | > 100 µM (inactive) | > 100 µM (inactive) | > 100 µM (inactive) | > 100 µM (inactive) | – | > 100 µM (inactive)
